Experimental data as given in PMC10590419, “Structural and mechanistic insights into the inhibition of respiratory syncytial virus polymerase by a non-nucleoside inhibitor” (Communications Biology, 2023).
Several values for one entry are separate records, joined by “and”; a condition that tells them apart may be missing. Equal entries are not always repeated.

Assays:
RSV L+P complex [1] = target: T1, RSV L+P complex (Human respiratory syncytial virus A, UniProt P28887); format: biochemical
RSV MTase-CTD protein = RSV MTase-CTD protein (Human respiratory syncytial virus A, UniProt P28887); experiment: Methyltransferase filter-binding assay; format: biochemical; details: three technical replicates
RSV L+P complex [2] = target: T1, RSV L+P complex; experiment: Surface plasmon resonance assay; format: binding, Human RSV (strain A2); details: SPR, top concentration 1 mM

Chain of RSV MTase-CTD protein (P28887 1755-2165): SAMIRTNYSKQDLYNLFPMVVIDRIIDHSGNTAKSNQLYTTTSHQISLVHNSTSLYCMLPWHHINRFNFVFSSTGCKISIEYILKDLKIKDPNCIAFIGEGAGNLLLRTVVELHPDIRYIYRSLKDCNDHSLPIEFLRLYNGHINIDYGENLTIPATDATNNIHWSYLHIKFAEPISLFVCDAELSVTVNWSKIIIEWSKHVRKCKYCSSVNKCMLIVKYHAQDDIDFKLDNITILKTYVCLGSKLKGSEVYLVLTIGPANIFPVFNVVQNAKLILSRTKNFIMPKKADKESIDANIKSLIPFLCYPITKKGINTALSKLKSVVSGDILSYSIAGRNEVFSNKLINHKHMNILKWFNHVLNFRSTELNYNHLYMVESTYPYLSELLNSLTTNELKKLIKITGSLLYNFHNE
T1 sequence (P03421 whole entry): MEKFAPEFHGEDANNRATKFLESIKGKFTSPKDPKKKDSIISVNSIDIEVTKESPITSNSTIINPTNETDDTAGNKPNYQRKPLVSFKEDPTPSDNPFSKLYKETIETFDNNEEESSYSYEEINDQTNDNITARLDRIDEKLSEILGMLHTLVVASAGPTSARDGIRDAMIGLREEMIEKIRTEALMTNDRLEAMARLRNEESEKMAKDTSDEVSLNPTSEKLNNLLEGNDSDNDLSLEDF
T1 sequence (P28887 whole entry): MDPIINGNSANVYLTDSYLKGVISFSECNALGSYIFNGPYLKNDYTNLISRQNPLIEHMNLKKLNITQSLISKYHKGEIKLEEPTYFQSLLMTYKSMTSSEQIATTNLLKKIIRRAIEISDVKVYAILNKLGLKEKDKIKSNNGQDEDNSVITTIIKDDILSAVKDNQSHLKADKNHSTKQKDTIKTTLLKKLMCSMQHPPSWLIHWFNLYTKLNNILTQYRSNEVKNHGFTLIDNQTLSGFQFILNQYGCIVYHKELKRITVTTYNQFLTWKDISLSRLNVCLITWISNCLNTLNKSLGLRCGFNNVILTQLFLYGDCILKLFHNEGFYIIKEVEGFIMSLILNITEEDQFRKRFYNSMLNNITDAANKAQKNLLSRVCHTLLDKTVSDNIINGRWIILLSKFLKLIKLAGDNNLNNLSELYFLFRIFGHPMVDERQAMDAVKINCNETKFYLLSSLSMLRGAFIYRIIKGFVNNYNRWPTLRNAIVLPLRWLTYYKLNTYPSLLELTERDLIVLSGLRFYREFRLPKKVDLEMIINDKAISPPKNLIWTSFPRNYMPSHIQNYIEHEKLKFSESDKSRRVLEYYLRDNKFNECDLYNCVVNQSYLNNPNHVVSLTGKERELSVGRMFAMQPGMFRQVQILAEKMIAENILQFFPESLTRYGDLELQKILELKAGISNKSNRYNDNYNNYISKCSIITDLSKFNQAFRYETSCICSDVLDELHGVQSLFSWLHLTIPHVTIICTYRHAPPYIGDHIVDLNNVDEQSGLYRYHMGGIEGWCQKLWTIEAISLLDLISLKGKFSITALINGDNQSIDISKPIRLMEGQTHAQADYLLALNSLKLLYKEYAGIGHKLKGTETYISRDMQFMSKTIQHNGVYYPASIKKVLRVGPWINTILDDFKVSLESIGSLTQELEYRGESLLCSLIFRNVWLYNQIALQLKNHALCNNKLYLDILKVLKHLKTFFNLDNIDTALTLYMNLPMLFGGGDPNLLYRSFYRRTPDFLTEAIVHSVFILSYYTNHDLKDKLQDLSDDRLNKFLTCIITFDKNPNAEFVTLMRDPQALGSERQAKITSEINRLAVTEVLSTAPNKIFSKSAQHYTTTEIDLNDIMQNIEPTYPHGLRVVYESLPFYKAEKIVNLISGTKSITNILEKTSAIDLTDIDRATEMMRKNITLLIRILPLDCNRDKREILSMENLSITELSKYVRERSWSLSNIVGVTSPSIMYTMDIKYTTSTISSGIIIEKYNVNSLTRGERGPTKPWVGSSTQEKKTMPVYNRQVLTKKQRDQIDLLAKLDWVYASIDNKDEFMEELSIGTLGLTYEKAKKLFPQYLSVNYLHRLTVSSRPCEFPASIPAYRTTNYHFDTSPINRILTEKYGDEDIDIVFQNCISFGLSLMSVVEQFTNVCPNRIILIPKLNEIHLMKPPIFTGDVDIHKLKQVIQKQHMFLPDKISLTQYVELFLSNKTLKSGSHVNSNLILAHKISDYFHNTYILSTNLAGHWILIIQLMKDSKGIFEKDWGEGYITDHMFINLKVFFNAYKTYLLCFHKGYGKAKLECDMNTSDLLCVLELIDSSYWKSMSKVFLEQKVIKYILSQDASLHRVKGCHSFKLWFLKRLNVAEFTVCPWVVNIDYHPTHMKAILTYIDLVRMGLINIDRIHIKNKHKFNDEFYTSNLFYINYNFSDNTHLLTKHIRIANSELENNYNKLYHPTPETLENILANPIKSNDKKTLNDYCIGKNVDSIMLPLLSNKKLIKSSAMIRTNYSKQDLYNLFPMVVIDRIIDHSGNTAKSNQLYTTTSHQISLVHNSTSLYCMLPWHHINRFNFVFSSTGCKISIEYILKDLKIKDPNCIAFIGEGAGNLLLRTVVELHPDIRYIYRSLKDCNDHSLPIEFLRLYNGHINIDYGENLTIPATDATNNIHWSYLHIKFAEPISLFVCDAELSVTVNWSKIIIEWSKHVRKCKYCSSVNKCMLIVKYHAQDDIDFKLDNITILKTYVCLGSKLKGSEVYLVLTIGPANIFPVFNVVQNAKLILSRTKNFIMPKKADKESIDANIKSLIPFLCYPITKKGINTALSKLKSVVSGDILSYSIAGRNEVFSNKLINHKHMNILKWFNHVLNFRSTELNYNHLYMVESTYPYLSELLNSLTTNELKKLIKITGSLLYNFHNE

SMILES	MTase activity, RNA+compound+RSV L+P, CPM (RSV L+P complex [1])	MTase activity, RNA+compound+RSV MTase-CTD, CPM (RSV MTase-CTD protein; 50 uM)	MTase activity, RNA+compound+RSV MTase-CTD, CPM (RSV MTase-CTD protein; 200 uM)	binding to purified RSV L+P (in words) (RSV L+P complex [2])
O=C(NC1CC1)c1cc2c(s1)-c1ccccc1N(C(=O)c1ccc(NC(=O)c3cccnc3N3CCC4(CC3)COC4)cc1)CC2 [AZ-27, reference compound]	10786 CPM and 11483 CPM and 10556 CPM and 15234 CPM and 15171 CPM and 17548 CPM	28343 CPM and 26589 CPM and 27119 CPM	32944 CPM and 32511 CPM and 35155 CPM	–
Nc1nc2c(ncn2[C@@H]2O[C@H](COP(=O)(O)OP(=O)(O)O)[C@@H](O)[C@H]2O)c(=O)[nH]1 [GDP, guanosine diphosphate]	–	–	–	did not bind
